Earlier results, collected in patent US11291622B2, “Method for dyeing keratinous material, comprising the use of an organosilicon compound, a dyeing compound and a silicon oil” (Henkel AG & Co. KGaA, priority 2018, dated 2022).
Where two headings read alike, the source gives them in different places.

Row | solubility in water (at about 25° C.) | solubility in water (25° C.) | Molecule
1 | highly soluble in water | – | O=C([O-])C1=NN(c2ccc(S(=O)(=O)[O-])cc2)C(=O)C1N=Nc1ccc(S(=O)(=O)[O-])cc1.[Na+].[Na+].[Na+] (centres unmarked) [Acid Yellow 23, trisodium salt of 4,5-dihydro-5-oxo-1-(4-sulfophenyl)-4-((4-sulfophenyl)azo)-1H-pyrazole-3-carboxylic acid]
2 | – | about 20 g/L | mixture of the sodium salts of mono- and disulfonic acids of 2-(2-quinolyl)-1H-indene-1,3(2H)-dione [Acid Yellow 3]
3 | – | more than 20 % by weight | CCN(Cc1cccc(S(=O)(=O)[O-])c1)c1ccc(C(=C2C=CC(=[N+](CC)Cc3cccc(S(=O)(=O)[O-])c3)C=C2)c2ccccc2S(=O)(=O)[O-])cc1.[Na+].[Na+] [Acid Blue 9]
4 | – | about 2.5 g/L | Nc1cc(S(=O)(=O)[O-])cc2cc(S(=O)(=O)[O-])c(N=Nc3ccccc3)c(O)c12.[Na+].[Na+] [Acid Red 33, diantrium salt of 5-amino-4-hydroxy-3-(phenylazo)-naphthalene-2,7-disulphonate]

Row | Molecule | solubility in water (at about 25° C.) | solubility in water (25° C.)
5 | O=S(=O)([O-])c1ccc(N=Nc2c(O)ccc3ccccc23)cc1.[Na+] [Acid Orange 7, sodium salt of 4-[(2-hydroxy-1-naphthyl)azo]benzene sulphonate] | – | more than 7 g/L
